For experiment [1], the target named is EGFR del19/T790M/C797S (Homo sapiens, UniProt P00533, C797S/DEL746-750/T790M). Briefly: Biochemical EGFR kinase assay (Lance Ultra TR-FRET), triple mutant del19/T790M/C797S. In outline: (§1)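 Step 1: compound in kinase buffer, 0.003–10 μM. Step 2: kinase reaction 1 h at room temperature. Step 4: TR-FRET read at 615/665 nm; IC50 calculated.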
Experiment [2] concerns the target EGFR L858R/T790M/C797S (Homo sapiens, UniProt P00533, C797S/L858R/T790M). As to the kind of experiment: Biochemical EGFR kinase assay (Lance Ultra TR-FRET), triple mutant L858R/T790M/C797S. The gist of the method: as §1
Experiment [3] concerns the target EGFR del19/C797S (Homo sapiens, UniProt P00533, C797S/DEL746-750). Briefly: Biochemical EGFR kinase assay (Lance Ultra TR-FRET), double mutant del19/C797S. In outline:
as §1

The target of experiment [4] is EGFR L858R/C797S (Homo sapiens, UniProt P00533, C797S/L858R). As to the kind of experiment: Biochemical EGFR kinase assay (Lance Ultra TR-FRET), double mutant L858R/C797S. In outline: as §1
The target of experiment [5] is EGFR wildtype (WT) (Homo sapiens, UniProt P00533). Briefly: Biochemical EGFR kinase assay (Lance Ultra TR-FRET), wildtype. The gist of the method:
as §1

[6] abbreviates: IC50 del19/T790M/C797S (nM) 100 μM ATP, 100 μM ATP.
Setting [7] is: IC50 L858R/T790M/C797S (nM) 100 μM ATP, 100 μM ATP.
[8] abbreviates: Km ATP, read-out: IC50 L858R/T790M/C797S (nM) Km ATP.
[9] abbreviates: IC50 del19/C797S (nM) 100 μM ATP, 100 μM ATP.
Setting [10] is: Km ATP, read-out: IC50 del19/C797S (nM) Km ATP.
The mark [11] stands for this setting: IC50 L858R/C797S (nM) 100 μM ATP, 100 μM ATP.
Where [12] appears, read: Km ATP, read-out: IC50 L858R/C797S (nM) Km ATP.
The mark [13] stands for this setting: IC50 WT (nM) 100 μM ATP, 100 μM ATP.
The mark [14] stands for this setting: Km ATP, read-out: IC50 WT (nM) Km ATP.
Setting [15] is: Km ATP, read-out: IC50 del19/T790M/C797S (nM) Km ATP.

Among the data in patent publication US12258327B2, “5-membered heteroaryl-containing aminopyridine compounds as EGFR inhibitors” (YUHAN CORPORATION, priority 2021, dated 2025) are IC50 values, retold here.

Molecules are shown by their SMILES. Read-outs that look alike come from different tables or passages of the source.

Sequence of EGFR del19/C797S (P00533 with tags, fused parts or gaps DEL746-750/C797S): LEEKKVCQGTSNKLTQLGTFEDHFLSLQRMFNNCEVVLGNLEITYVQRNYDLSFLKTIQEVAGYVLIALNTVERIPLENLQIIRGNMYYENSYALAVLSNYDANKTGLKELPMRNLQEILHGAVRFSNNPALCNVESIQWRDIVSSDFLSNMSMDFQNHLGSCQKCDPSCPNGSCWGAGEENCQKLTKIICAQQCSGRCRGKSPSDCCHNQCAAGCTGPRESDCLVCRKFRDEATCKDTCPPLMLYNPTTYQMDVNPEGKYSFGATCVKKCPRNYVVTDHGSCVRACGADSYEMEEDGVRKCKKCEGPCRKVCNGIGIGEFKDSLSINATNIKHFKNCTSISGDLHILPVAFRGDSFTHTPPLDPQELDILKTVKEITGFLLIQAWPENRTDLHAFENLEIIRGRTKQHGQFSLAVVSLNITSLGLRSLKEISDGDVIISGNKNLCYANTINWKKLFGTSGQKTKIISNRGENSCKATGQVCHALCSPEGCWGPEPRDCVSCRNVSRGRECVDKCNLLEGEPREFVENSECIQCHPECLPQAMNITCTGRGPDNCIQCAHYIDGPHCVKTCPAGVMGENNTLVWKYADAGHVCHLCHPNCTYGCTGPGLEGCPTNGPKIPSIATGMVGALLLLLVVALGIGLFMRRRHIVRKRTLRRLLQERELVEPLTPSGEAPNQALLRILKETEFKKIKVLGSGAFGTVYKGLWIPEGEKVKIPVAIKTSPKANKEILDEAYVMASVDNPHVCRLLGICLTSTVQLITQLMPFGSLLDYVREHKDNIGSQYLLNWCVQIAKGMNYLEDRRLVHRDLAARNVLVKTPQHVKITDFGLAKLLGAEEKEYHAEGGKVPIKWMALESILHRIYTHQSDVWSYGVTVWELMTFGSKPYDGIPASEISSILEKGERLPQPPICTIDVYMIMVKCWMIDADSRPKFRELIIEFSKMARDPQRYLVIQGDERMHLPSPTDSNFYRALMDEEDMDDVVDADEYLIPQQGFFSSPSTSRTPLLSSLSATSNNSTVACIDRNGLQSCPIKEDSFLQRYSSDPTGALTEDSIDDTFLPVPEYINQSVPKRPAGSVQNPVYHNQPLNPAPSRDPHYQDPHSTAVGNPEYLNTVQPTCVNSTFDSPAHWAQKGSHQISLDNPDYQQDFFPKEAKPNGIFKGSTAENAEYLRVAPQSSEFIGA
Sequence of EGFR L858R/C797S (P00533 25-1210 C797S/L858R): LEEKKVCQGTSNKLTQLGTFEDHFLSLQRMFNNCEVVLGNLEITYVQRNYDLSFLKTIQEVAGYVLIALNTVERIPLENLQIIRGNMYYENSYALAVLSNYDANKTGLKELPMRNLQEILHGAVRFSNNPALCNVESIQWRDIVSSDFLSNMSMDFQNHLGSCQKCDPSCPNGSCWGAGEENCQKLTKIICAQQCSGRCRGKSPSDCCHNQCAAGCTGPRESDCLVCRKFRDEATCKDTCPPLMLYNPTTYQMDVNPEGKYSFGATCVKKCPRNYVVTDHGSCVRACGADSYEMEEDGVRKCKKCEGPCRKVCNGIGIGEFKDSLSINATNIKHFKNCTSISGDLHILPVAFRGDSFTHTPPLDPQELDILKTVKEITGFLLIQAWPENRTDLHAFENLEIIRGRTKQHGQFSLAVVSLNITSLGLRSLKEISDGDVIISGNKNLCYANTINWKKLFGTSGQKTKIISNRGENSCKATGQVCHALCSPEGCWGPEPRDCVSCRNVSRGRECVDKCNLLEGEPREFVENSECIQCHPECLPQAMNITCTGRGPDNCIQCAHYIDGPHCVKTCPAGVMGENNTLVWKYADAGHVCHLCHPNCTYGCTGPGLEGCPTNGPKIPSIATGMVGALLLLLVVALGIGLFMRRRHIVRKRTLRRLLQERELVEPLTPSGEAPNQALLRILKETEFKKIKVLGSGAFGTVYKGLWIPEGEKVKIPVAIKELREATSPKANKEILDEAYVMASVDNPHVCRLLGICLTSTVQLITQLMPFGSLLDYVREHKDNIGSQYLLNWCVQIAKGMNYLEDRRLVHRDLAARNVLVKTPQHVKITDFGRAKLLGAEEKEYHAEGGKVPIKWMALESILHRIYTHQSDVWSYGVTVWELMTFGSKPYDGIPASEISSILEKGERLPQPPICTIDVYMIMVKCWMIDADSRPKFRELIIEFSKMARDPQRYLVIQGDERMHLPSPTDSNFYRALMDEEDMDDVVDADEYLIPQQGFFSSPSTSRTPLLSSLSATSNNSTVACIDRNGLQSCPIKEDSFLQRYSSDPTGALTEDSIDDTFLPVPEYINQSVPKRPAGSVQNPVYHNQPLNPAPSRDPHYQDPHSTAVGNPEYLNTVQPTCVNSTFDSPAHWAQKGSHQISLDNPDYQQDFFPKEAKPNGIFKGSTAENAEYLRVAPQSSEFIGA
Sequence of EGFR del19/T790M/C797S (P00533 with tags, fused parts or gaps DEL746-750/T790M/C797S): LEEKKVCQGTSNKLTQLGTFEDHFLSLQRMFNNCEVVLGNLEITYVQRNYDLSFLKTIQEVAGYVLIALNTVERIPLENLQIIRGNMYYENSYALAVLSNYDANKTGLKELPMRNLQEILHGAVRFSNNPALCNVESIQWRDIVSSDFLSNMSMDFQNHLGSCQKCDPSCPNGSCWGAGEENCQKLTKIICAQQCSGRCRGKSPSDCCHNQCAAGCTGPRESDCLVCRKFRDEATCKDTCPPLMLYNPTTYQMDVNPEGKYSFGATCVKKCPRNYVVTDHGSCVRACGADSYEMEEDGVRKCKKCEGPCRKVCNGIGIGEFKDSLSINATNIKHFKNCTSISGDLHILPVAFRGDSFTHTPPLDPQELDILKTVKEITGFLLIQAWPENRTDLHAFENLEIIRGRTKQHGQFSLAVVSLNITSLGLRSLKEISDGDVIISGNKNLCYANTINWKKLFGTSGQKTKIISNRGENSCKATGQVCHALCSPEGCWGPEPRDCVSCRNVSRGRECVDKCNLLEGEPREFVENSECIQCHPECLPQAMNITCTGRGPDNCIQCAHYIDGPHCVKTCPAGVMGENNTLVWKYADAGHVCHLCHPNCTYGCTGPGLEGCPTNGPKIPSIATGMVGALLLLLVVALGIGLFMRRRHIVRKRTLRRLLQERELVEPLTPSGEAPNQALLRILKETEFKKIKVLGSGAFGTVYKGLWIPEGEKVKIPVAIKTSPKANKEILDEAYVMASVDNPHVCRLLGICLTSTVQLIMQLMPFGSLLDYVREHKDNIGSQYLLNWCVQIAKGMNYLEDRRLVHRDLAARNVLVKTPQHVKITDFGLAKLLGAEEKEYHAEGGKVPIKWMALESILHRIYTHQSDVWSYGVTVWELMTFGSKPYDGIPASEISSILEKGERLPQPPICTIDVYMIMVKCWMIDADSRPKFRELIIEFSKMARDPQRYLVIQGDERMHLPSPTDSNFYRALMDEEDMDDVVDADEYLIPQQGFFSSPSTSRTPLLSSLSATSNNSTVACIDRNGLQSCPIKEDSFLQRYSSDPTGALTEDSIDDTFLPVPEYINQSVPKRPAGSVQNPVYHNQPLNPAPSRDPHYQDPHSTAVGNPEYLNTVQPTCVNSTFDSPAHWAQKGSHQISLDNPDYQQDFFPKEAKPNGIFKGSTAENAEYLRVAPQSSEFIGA
Sequence of EGFR L858R/T790M/C797S (P00533 25-1210 T790M/C797S/L858R): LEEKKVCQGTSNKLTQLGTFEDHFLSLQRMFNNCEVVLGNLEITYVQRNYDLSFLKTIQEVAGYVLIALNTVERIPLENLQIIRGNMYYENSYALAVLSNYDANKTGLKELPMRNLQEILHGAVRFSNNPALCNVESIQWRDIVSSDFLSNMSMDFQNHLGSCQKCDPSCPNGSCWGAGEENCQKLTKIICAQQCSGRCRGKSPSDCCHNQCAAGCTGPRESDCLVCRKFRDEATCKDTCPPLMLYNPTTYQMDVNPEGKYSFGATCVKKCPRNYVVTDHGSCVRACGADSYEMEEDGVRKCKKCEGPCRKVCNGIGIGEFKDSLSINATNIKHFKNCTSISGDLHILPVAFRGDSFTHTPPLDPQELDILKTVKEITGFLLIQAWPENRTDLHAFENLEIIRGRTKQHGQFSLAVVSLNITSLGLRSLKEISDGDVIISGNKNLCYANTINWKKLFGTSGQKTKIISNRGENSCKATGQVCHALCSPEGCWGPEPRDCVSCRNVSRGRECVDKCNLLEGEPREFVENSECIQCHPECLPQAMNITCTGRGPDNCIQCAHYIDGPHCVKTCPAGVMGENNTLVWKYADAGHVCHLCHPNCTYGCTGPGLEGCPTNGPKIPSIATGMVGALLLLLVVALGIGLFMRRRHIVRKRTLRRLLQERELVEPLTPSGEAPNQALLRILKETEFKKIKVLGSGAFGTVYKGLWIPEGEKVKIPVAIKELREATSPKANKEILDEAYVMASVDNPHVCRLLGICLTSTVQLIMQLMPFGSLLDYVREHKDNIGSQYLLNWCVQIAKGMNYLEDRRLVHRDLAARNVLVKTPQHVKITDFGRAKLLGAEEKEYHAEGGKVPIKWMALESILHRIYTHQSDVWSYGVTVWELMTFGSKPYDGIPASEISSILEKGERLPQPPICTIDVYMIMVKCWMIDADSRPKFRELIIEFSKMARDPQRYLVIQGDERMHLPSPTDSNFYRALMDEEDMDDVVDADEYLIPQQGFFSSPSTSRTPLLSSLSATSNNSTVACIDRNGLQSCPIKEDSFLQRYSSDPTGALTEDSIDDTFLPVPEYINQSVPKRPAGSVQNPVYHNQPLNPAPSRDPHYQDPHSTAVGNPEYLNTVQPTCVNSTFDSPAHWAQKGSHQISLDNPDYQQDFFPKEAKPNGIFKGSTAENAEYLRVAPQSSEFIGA

In the case of `Cn1nc(-c2cnc(Nc3ccnc(-c4cnn(S(=O)(=O)C5CC5)c4)n3)cc2N[C@H]2CC[C@@H](C(C)(C)O)CC2)cc1C(C)(C)O` [Example 298, 2-(3-(6-((2-(1-(Cyclopropylsulfonyl)-1H-pyrazol-4-yl)pyrimidin-4-yl)amino)-4-(((1s,4s)-4-(2-hydroxypropan-2-yl)cyclohexyl)amino)pyridin-3-yl)-1-methyl-1H-pyrazol-5-yl)propan-2-ol], the IC50 in experiment [1] (setting [6]) is 1.8 nM; in experiment [2] (setting [7]), 1 nM; in experiment [2] (setting [8]) it was 0.3 nM; in experiment [3] (setting [9]), 0.8 nM; in experiment [3] (setting [10]) it was 1 nM; in experiment [4] (setting [11]), 1.7 nM. The IC50 is 1.1 nM in experiment [4] (setting [12]), 504 nM in experiment [5] (setting [13]) and 1.6 nM in experiment [5] (setting [14]).
On to `CC(C)(O)c1nc(-c2cnc(Nc3ccnc(-c4cnn(S(=O)(=O)C5CC5)c4)n3)cc2N[C@H]2CCC[C@H](O)C2)cs1` [Example 91, (1S,3S)-3-((2-((2-(1-(Cyclopropylsulfonyl)-1H-pyrazol-4-yl)pyrimidin-4-yl)amino)-5-(2-(2-hydroxypropan-2-yl)thiazol-4-yl)pyridin-4-yl)amino) cyclohexan-1-ol], for which the IC50 in experiment [1] (setting [6]) is 1 nM; in experiment [2] (setting [7]), 2.3 nM; in experiment [3] (setting [9]), 0.8 nM; in experiment [4] (setting [11]), 8.7 nM; in experiment [5] (setting [13]), greater than 10000 nM.
As for `O=S(=O)(C1CC1)n1cc(-c2nccc(Nc3cc(NCC4CCC(NCCF)CC4)c(-c4ccn(C(F)F)n4)cn3)n2)cn1` (centres unmarked) [Example 132, N^2-(2-(1-(Cyclopropylsulfonyl)-1H-pyrazol-4-yl)pyrimidin-4-yl)-5-(1-(difluoromethyl)-1H-pyrazol-3-yl)-N^4-((4-((2-fluoroethyl)amino)cyclohexyl)methyl)pyridine-2,4-diamine], the IC50 in experiment [1] (setting [6]) stood at 0.4 nM; in experiment [1] (setting [15]), 0.3 nM; in experiment [2] (setting [7]), 0.5 nM; in experiment [2] (setting [8]), 0.1 nM; in experiment [3] (setting [9]), 1.1 nM; in experiment [3] (setting [10]), 0.5 nM. Besides, the IC50 in experiment [4] (setting [11]) is 2.3 nM; in experiment [4] (setting [12]), 0.8 nM; in experiment [5] (setting [13]), 4690 nM; in experiment [5] (setting [14]), 5.2 nM.
For `Cn1nc(-c2cnc(Nc3ccnc(-c4cnn(S(=O)(=O)C5CC5)c4)n3)cc2N[C@H]2CC[C@H](CCO)CC2)cc1C(F)(F)F` [Example 263, 2-((1r,4r)-4-((2-((2-(1-(Cyclopropylsulfonyl)-1H-pyrazol-4-yl)pyrimidin-4-yl)amino)-5-(1-methyl-5-(trifluoromethyl)-1H-pyrazol-3-yl)pyridin-4-yl)amino)cyclohexyl)ethan-1-ol], the IC50 amounted to 9.9 nM in experiment [1] (setting [6]); 0.3 nM in experiment [1] (setting [15]); 11.5 nM in experiment [2] (setting [7]); 2.6 nM in experiment [2] (setting [8]); 237 nM in experiment [3] (setting [9]); 15.5 nM in experiment [3] (setting [10]). The IC50 in experiment [4] (setting [11]) was 32.5 nM; in experiment [4] (setting [12]) it was 6.3 nM; in experiment [5] (setting [13]), greater than 10000 nM; in experiment [5] (setting [14]), 54.5 nM.
As to `C[C@]1(O)CC[C@@H](Nc2nc(Nc3ccnc(-c4cnn(S(=O)(=O)C5CC5)c4)c3)ncc2-c2ccn(CC(F)(F)F)n2)CC1` [Example 360, (1s,4s)-4-((2-((2-(1-(Cyclopropylsulfonyl)-1H-pyrazol-4-yl)pyridin-4-yl)amino)-5-(1-(2,2,2-trifluoroethyl)-1H-pyrazol-3-yl)pyrimidin-4-yl)amino)-1-methylcyclohexan-1-ol], the IC50 in experiment [1] (Km ATP, read-out: IC50 del19/T790M/C797S, Km ATP) was determined as 0.5 nM; in experiment [2] (Km ATP, read-out: IC50 L858R/T790M/C797S, Km ATP), 0.9 nM; in experiment [3] (Km ATP, read-out: IC50 del19/C797S, Km ATP), 9.5 nM; in experiment [4] (Km ATP, read-out: IC50 L858R/C797S, Km ATP), 16.7 nM; in experiment [5] (Km ATP, read-out: IC50 WT, Km ATP), 140 nM.
In the case of `O=S(=O)(C1CC1)n1cc(-c2nccc(Nc3cc(NC4CCN(CC(F)F)CC4)c(-c4ccn(C(F)F)n4)cn3)n2)cn1` [Example 219, N^2-(2-(1-(Cyclopropylsulfonyl)-1H-pyrazol-4-yl)pyrimidin-4-yl)-N^4-(1-(2,2-difluoroethyl)piperidin-4-yl)-5-(1-(difluoromethyl)-1H-pyrazol-3-yl)pyridine-2,4-diamine], the IC50 turned out to be 0.8 nM in experiment [1] (setting [15]); 0.5 nM in experiment [2] (setting [8]); 134 nM in experiment [3] (setting [10]); 21.4 nM in experiment [4] (setting [12]); 8630 nM in experiment [5] (setting [14]).
For `Cn1ccc(-c2cnc(Nc3ccnc(-c4cnn(S(=O)(=O)C5CC5)c4)n3)cc2NC[C@H]2C[C@H](CO)C2)n1` [Example 223, ((1r,3r)-3-(((2-((2-(1-(Cyclopropylsulfonyl)-1H-pyrazol-4-yl)pyrimidin-4-yl)amino)-5-(1-methyl-1H-pyrazol-3-yl)pyridin-4-yl)amino)methyl)cyclobutyl)methanol], the IC50 came to 0.2 nM in experiment [1] (setting [6]); 0.2 nM in experiment [1] (setting [15]); 0.2 nM in experiment [2] (setting [7]); 0.1 nM in experiment [2] (setting [8]); 0.6 nM in experiment [3] (setting [9]); 0.3 nM in experiment [3] (setting [10]). Besides, the IC50 in experiment [4] (setting [11]) stood at 5.9 nM; in experiment [4] (setting [12]) it was 0.7 nM; in experiment [5] (setting [13]) it was 3020 nM; in experiment [5] (setting [14]), 3.2 nM.
As to `O=S(=O)(C1CC1)n1cc(-c2nccc(Nc3cc(N[C@H]4CC[C@H](CO)OC4)c(-c4ccn(C(F)F)n4)cn3)n2)cn1` [Example 196, ((2R,5S)-5-((2-((2-(1-(Cyclopropylsulfonyl)-1H-pyrazol-4-yl)pyrimidin-4-yl)amino)-5-(1-(difluoromethyl)-1H-pyrazol-3-yl)pyridin-4-yl)amino)tetrahydro-2H-pyran-2-yl)methanol], the IC50 is 3.7 nM in experiment [1] (setting [6]); 13.3 nM in experiment [2] (setting [7]); 131 nM in experiment [3] (setting [9]); 9100 nM in experiment [4] (setting [11]); greater than 10000 nM in experiment [5] (setting [13]).
In the case of `CN(C)C[C@H]1CC[C@@H](Nc2cc(Nc3ccnc(-c4cnn(S(=O)(=O)C5CC5)c4)n3)ncc2-c2ccn(C(F)F)n2)CC1` [Example 195, N^2-(2-(1-(Cyclopropylsulfonyl)-1H-pyrazol-4-yl)pyrimidin-4-yl)-5-(1-(difluoromethyl)-1H-pyrazol-3-yl)-N^4-((1s,4s)-4-((dimethylamino)methyl)cyclohexyl)pyridine-2,4-diamine], the IC50 in experiment [1] (setting [6]) was 0.1 nM; in experiment [1] (setting [15]) it was 0.1 nM; in experiment [2] (setting [7]) it was 0.1 nM; in experiment [2] (setting [8]), 0.04 nM; in experiment [3] (setting [9]), 0.3 nM; in experiment [3] (setting [10]), 0.2 nM. Further, the IC50 in experiment [4] (setting [11]) worked out at 0.8 nM; in experiment [4] (setting [12]), 0.1 nM; in experiment [5] (setting [13]), 145 nM; in experiment [5] (setting [14]), 0.3 nM.
In the case of `COCn1ccc(-c2cnc(Nc3ccnc(-c4cnn(S(=O)(=O)C5CC5)c4)n3)cc2N[C@H]2CC[C@@H](C(C)(C)O)CC2)n1` [Example 299, 2-((1s,4s)-4-((2-((2-(1-(Cyclopropylsulfonyl)-1H-pyrazol-4-yl)pyrimidin-4-yl)amino)-5-(1-(methoxymethyl)-1H-pyrazol-3-yl)pyridin-4-yl)amino)cyclohexyl)propan-2-ol], the IC50 in experiment [1] (setting [15]) was 1.1 nM; in experiment [2] (setting [8]) it was 0.3 nM; in experiment [3] (setting [10]) it was 4.1 nM; in experiment [4] (setting [12]), 0.5 nM; in experiment [5] (setting [14]) it was 5 nM.
As to `O=S(=O)(C1CC1)n1cc(-c2nccc(Nc3cc(N[C@H]4CCC[C@H](O)C4)c(-c4ccn(C(F)F)n4)cn3)n2)cn1` [Example 21, (1S,3S)-3-((2-((2-(1-(Cyclopropylsulfonyl)-1H-pyrazol-4-yl)pyrimidin-4-yl)amino)-5-(1-(difluoromethyl)-1H-pyrazol-3-yl)pyridin-4-yl)amino)cyclohexan-1-ol], the IC50 was 1.3 nM in experiment [1] (setting [6]); 0.3 nM in experiment [1] (setting [15]); 0.9 nM in experiment [2] (setting [7]); 0.2 nM in experiment [2] (setting [8]); 0.7 nM in experiment [3] (setting [9]); 0.3 nM in experiment [3] (setting [10]). Further, the IC50 in experiment [4] (setting [11]) was found to be 8.9 nM; in experiment [4] (setting [12]) it was 0.9 nM; in experiment [5] (setting [13]) it was 5010 nM; in experiment [5] (setting [14]), 5.4 nM.
With `CN(C)CCCn1ccc(-c2cnc(Nc3ccnc(-c4cnn(S(=O)(=O)C5CC5)c4)n3)cc2N[C@H]2CC[C@@](C)(O)CC2)n1` [Example 288, (1s,4s)-4-((2-((2-(1-(Cyclopropylsulfonyl)-1H-pyrazol-4-yl)pyrimidin-4-yl)amino)-5-(1-(3-(dimethylamino)propyl)-1H-pyrazol-3-yl)pyridin-4-yl)amino)-1-methylcyclohexan-1-ol], the IC50 turned out to be 0.2 nM in experiment [1] (setting [6]); 0.2 nM in experiment [2] (setting [7]); 0.2 nM in experiment [3] (setting [9]); 0.4 nM in experiment [4] (setting [11]); 133 nM in experiment [5] (setting [13]).
